The source of these data is ChEMBL document CHEMBL1132501, “Synthesis and anti-Helicobacter pylori activity of FR182024, a new cephem derivative” (1999).

The nature of test [1]: The compound was tested against penicillinase (TEM) and its stability towards beta-lactamase relative to cephaloridine was evaluated.
Test [2] deals with Beta-lactamase (Bacteroides fragilis). Briefly: The compound was tested against Bacteroides fragilis FP784 its stability towards beta-lactamase relative to cephaloridine was evaluated.
Test [3] can be described thus: The compound was tested against penicillinase (TEM) and its stability towards beta-lactamase was evaluated.
A short description of test [4]: The compound was tested against Penicillinase (TEM) and its stability towards beta-lactamase relative to cephaloridine was evaluated. Format: functional.

As a reminder, the Km is the substrate concentration at which the rate is half of its maximum. Consider `Cc1nnc(SC2=C(C(=O)O)N3C(=O)[C@@H](NC(=O)Cc4ccccc4)[C@H]3SC2)s1`, for which, in test [1], the Vmax came out at 3.61 and the Vmax / Km was found to be 6.33. Also, in test [2], the Vmax / Km was found to be 1.98. Also, the Km in test [3] is 47.4 µg/mL.
With `O=C(Cc1cccs1)N[C@@H]1C(=O)N2C(C(=O)[O-])=C(C[n+]3ccccc3)CS[C@H]12`, in test [4], the Vmax worked out at 1 and the Vmax / Km is 1.
